Experimental findings from patent US6403656B1, “Use of ppar-γ activators in dermatology” (Galderma Research & Development S.N.C, priority 1997, dated 2002) are described below.

One assay has as its target T1, PPARα (Homo sapiens, UniProt Q07869).
T1 sequence (Q07869 1-468): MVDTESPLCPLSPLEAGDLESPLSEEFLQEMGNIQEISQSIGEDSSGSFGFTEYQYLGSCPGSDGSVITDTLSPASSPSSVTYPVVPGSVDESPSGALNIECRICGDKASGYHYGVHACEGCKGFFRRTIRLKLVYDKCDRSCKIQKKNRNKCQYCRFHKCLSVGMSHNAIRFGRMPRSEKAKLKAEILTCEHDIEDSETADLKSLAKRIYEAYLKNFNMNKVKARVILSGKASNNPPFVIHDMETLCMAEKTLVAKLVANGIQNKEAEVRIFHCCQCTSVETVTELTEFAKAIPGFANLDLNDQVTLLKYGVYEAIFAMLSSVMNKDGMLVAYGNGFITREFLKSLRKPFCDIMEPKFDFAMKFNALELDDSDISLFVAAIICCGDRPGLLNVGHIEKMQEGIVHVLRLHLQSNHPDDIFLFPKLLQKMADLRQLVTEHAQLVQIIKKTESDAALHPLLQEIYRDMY
As to the kind of experiment: Transactivation test (luciferase reporter, cotransfected HeLa cells) via PPARα. Particulars: read-out: AC50 (nM) − PPARα; HeLa cells cotransfected with receptor expression vector and PPRE-luciferase reporter, treated for 24 hours.

The test system of the next assay is keratinocytes. As to the kind of experiment: Determination of the keratinocyte proliferation (BrdU incorporation). Particulars: statement in words.
The target of another assay is T2, PPARγ (Homo sapiens, UniProt P37231).
T2 sequence (P37231 1-505): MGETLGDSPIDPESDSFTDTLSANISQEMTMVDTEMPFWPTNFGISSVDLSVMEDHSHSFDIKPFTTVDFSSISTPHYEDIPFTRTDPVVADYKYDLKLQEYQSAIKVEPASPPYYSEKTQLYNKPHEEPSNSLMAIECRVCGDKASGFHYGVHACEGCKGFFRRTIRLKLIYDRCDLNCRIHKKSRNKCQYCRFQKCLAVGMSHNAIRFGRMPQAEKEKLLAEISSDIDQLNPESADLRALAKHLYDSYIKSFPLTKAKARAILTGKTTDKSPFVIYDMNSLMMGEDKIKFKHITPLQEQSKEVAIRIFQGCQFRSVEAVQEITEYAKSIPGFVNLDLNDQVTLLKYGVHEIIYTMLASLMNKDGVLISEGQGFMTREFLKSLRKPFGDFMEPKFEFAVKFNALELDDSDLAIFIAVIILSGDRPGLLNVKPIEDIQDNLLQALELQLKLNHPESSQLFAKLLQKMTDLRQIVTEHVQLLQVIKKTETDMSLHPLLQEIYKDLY
As to the kind of experiment: Transactivation test (luciferase reporter, cotransfected HeLa cells) via PPARγ.

Take `CCOC(Cc1ccc(OCCN(C)c2nc3ccccc3o2)cc1)C(=O)O` (single isomer, unassigned; (+)) [Compound C, (+)-3-{4-[2-(benzoxazol-2-ylmethylamino)-ethoxy]phenyl}-2-ethyoxypropionic acid]: the AC50 at PPARα was determined as 4600 nM. Turning to `CCOC(Cc1ccc(OCCN(C)c2nc3ccccc3o2)cc1)C(=O)O` (single isomer, unassigned; (-)) [Compound D, (−)-3-{4-[2-(benzooxazol-2-ylmethylamino)-ethoxy]phenyl}-2-ethyoxypropionic acid], the AC50 at PPARα amounted to 1450 nM. As for `CN(CCOc1ccc(CC2SC(=O)NC2=O)cc1)c1ccccn1` (stereo not shown) [Compound A, 5-{4-[2-(methylpyrid-2-ylamino)-ethoxy]benzyl}thiazolidine-2,4-dione], in the assay with keratinocytes, the “inhibitory activity on the proliferation of keratinocytes” value is on record as “weak, or even no inhibitory activity”. Take `CCCCC/C=C/C=C1/C(=O)C=CC1C/C=C\CCCC(=O)O` (stereo not shown) [Compound E, 15-deoxy-Δ^12,14-prostaglandin J2(15-d PGJ2)]: the “inhibitory activity on the proliferation of keratinocytes” value in the assay on keratinocytes is reported as “weak, or even no inhibitory activity”. The AC50 turned out to be 2200 nM at PPARα; 180 nM at PPARγ (read-out: AC50 (nM) − PPARγ, HeLa cells cotransfected with receptor expression vector and PPRE-luciferase reporter, treated for 24 hours). For the same compound, the “R1 (ratio of AC50 relative to PPAR-γ over AC50 relative to PPARα)” value on PPARγ (AC50 PPARγ / AC50 PPARα) worked out at 0.082.
